This is an account of results in patent publication US20250154126A1, “CRYSTALLINE FORM OF SULFUR-CONTAINING ISOINDOLINE DERIVATIVE” (JIANGSU HENGRUI PHARMACEUTICALS CO., LTD., priority 2022, published 2025).

This series deals with NCI-H929 xenograft tumor. Description: Pharmacodynamic test: NCI-H929 xenograft tumor in CB-17 SCID mice. The format is in vivo. The following applies: for Number of remaining animals/group: 1 mg/kg qd/11 d, oral. Here is the method:
This experiment was performed to evaluate the inhibition effect of the compound of Example 1 and the control example CC-92480 on the growth of human multiple myeloma cell NCI-H929 xenograft tumor in CB-17 SCID mice.
Solutions of the compound of Example 1 and the control example CC-92480 were prepared with 5% DMSO+20% PEG400+70% (10% TPGS)+5% (1% HPMC K100LV).
Thirty CB-17 SCID female mice, purchased from Beijing Vital River Laboratory Animal Technology Co., Ltd. (certificate No. 20170011006049, SCXK (Shanghai) 2017-0011), weighing about 19 g at the time of purchase, were bred at 5 mice/cage (in a 12/12 hour light/dark cycle, at a constant temperature of 23±1° C. and humidity of 50%-60%) and had free access to food and water.
After adaptive feeding, the CB-17 SCID mice were grouped as follows:
NCI-H929 cells in a logarithmic growth phase were inoculated subcutaneously into the right flank of 30 female CB-17 SCID mice at 5×10^6 cells/mouse/100 μL (containing […] of Matrigel). After 10 days, when the tumor volume of the tumor-bearing mice reached about 200 mm^3, the mice were randomly divided into 3 groups according to the tumor volume and body weight: vehicle control group, CC-92480-1 mpk, compound of Example 1-1 mpk, with […]. The day of grouping was set as Day 0 (DO), and intragastric administration was performed once a day for 11 days (Table 2). For the tumor-bearing mice, the tumor volume was measured with a vernier caliper and the body weight was measured with a balance twice a week, and the data were recorded.
The tumor volume (V) was calculated as follows: V=1/2×a×b^2, where a and b represent length and width, respectively.
The relative tumor proliferation rate T/C (%)=(T−T0)/(C−C0)×100(%), where T and C are the tumor volume of animals at the end of the experiment in the treatment group and control group, respectively; T0 and C0 are the tumor volume of animals at the beginning of the experiment in the treatment group and control group, respectively. […]

As to `N#Cc1ccc(N2CCN(Cc3ccc(COc4cccc5c4CN([C@H]4CCC(=O)NC4=O)C5=O)cc3)CC2)c(F)c1` [CC-92480, reference compound], the “Number of remaining animals/group” value is 7/7.
`N#Cc1ccc(N2CCC(Sc3ccc(COc4cccc5c4CN([C@H]4CCC(=O)NC4=O)C5=O)cn3)CC2)c(F)c1` [Example 1, (S)-4-(4-((5-(((2-(2,6-dioxopiperidin-3-yl)-1-oxoisoindolin-4-yl)oxy)methyl)pyridin-2-yl)thio)piperidin-1-yl)-3-fluorobenzonitrile]: the “Number of remaining animals/group” value is listed as 7/7. Besides, the “influence on the body weight of mice” value (1 mg/kg qd, 11 days, CB-17 SCID mice) is listed as “no influence”.
